# Biological target: T1, hMAGL (Homo sapiens, UniProt Q99685)
# T1 sequence (Q99685 1-303): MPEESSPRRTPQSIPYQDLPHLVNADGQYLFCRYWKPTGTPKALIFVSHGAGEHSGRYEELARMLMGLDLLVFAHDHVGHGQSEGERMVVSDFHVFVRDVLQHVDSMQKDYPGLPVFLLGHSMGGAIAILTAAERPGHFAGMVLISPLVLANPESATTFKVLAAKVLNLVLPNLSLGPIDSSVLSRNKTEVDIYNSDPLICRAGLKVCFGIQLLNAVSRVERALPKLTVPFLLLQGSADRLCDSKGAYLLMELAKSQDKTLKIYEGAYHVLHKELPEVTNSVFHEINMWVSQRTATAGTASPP
# Test: 2-AG assay: MAGL inhibition, hydrolysis of 2-arachidonoylglycerol to arachidonic acid followed by mass spectrometry
# Type: biochemical
# In short: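 MAGL preincubated with compound 15 min at RT in 50 mM Tris, 1 mM EDTA, 0.01% Tween-20, 2.5% DMSO; reaction started with 8 μM 2-AG (final), […], 30 min at RT. Quenched with acetonitrile containing d8-arachidonic acid; arachidonic acid quantified by RapidFire SPE-triple quad MS as arachidonic acid/d8 ratio.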
row,SMILES,IC50 [nM]
1,"O=C(N1CC2(CC(Cn3ncc(C(F)(F)F)n3)C2)C1)N1CC2(CC(n3cnc(C4(O)CC4)n3)C2)C1 [Example 292, [6-[3-(1-hydroxycyclopropyl)-1,2,4-triazol-1-yl]-2-azaspiro[3.3]heptan-2-yl]-[6-[[4-(trifluoromethyl)triazol-2-yl]methyl]-2-azaspiro[3.3]heptan-2-yl]methanone]",4.31
2,"O=C(N1CC2(CC(Cn3ccc(C(F)(F)F)n3)C2)C1)N1CC2(CC(n3cnc(C4(O)CC4)n3)C2)C1 [Example 293, [6-[3-(1-hydroxycyclopropyl)-1,2,4-triazol-1-yl]-2-azaspiro[3.3]heptan-2-yl]-[6-[[3-(trifluoromethyl)pyrazol-1-yl]methyl]-2-azaspiro[3.3]heptan-2-yl]methanone]",5.1
3,"O=C(N1CC2(CC(Cc3cc(C(F)F)n[nH]3)C2)C1)N1CC2(CC(c3cc(C4CC4)n[nH]3)C2)C1 [Example 294, [6-(3-cyclopropyl-1H-pyrazol-5-yl)-2-azaspiro[3.3]heptan-2-yl]-[6-[[3-(difluoromethyl)-1H-pyrazol-5-yl]methyl]-2-azaspiro[3.3]heptan-2-yl]methanone]",0.33
4,"O=C(N1CC2(CC(Cc3cc(C(F)F)n[nH]3)C2)C1)N1CC2(CC(n3cnc(C(F)(F)F)n3)C2)C1 [Example 295, [6-[[3-(difluoromethyl)-1H-pyrazol-5-yl]methyl]-2-azaspiro[3.3]heptan-2-yl]-[6-[3-(trifluoromethyl)-1,2,4-triazol-1-yl]-2-azaspiro[3.3]heptan-2-yl]methanone]",1.11
5,"O=C(N1CC2(CC(Cc3cc(C(F)F)n[nH]3)C2)C1)N1CC2(CC(n3cnc(C4CC4)n3)C2)C1 [Example 296, [6-(3-cyclopropyl-1,2,4-triazol-1-yl)-2-azaspiro[3.3]heptan-2-yl]-[6-[[3-(difluoromethyl)-1H-pyrazol-5-yl]methyl]-2-azaspiro[3.3]heptan-2-yl]methanone]",0.17
6,"O=C(N1CC2(CC(Cc3cc(C(F)(F)F)n[nH]3)C2)C1)N1CC2(CC(c3cc(C4CC4)n[nH]3)C2)C1 [Example 297, [6-(3-cyclopropyl-1H-pyrazol-5-yl)-2-azaspiro[3.3]heptan-2-yl]-[6-[[3-(trifluoromethyl)-1H-pyrazol-5-yl]methyl]-2-azaspiro[3.3]heptan-2-yl]methanone]",0.12
7,"O=C(N1CC2(CC(Cc3cc(C(F)(F)F)n[nH]3)C2)C1)N1CC2(CC(n3cnc(C(F)(F)F)n3)C2)C1 [Example 298, [6-[[3-(trifluoromethyl)-1H-pyrazol-5-yl]methyl]-2-azaspiro[3.3]heptan-2-yl]-[6-[3-(trifluoromethyl)-1,2,4-triazol-1-yl]-2-azaspiro[3.3]heptan-2-yl]methanone]",0.23
8,"O=C(N1CC2(CC(Cc3cc(C(F)(F)F)n[nH]3)C2)C1)N1CC2(CC(n3cnc(C4(O)CC4)n3)C2)C1 [Example 299, [6-[3-(1-hydroxycyclopropyl)-1,2,4-triazol-1-yl]-2-azaspiro[3.3]heptan-2-yl]-[6-[[3-(trifluoromethyl)-1H-pyrazol-5-yl]methyl]-2-azaspiro[3.3]heptan-2-yl]methanone]",1.83
9,"O=C(N1CC2(CC(Cc3cc(C(F)(F)F)n[nH]3)C2)C1)N1CC2(CC(n3cnc(C4CC4)n3)C2)C1 [Example 300, [6-(3-cyclopropyl-1,2,4-triazol-1-yl)-2-azaspiro[3.3]heptan-2-yl]-[6-[[3-(trifluoromethyl)-1H-pyrazol-5-yl]methyl]-2-azaspiro[3.3]heptan-2-yl]methanone]",0.12
10,"O=C(N1CC2(CC(Cc3nc(C4CC4)n[nH]3)C2)C1)N1CC2(CC(c3cc(C4CC4)n[nH]3)C2)C1 [Example 301, [6-(3-cyclopropyl-1H-pyrazol-5-yl)-2-azaspiro[3.3]heptan-2-yl]-[6-[(3-cyclopropyl-1H-1,2,4-triazol-5-yl)methyl]-2-azaspiro[3.3]heptan-2-yl]methanone]",1.1
11,"Cc1nc(C)c(CN2CC3(C2)CN(C(=O)N2CC4(CC(n5cnc(C6CC6)n5)C4)C2)C3)s1 [Example 302, [6-(3-cyclopropyl-1,2,4-triazol-1-yl)-2-azaspiro[3.3]heptan-2-yl]-[6-[(2,4-dimethylthiazol-5-yl)methyl]-2,6-diazaspiro[3.3]heptan-2-yl]methanone]",9.77
12,"O=C(N1CC2(CC(Cc3n[nH]c(C4CC4)n3)C2)C1)N1CC2(CC(n3cnc(C(F)(F)F)n3)C2)C1 [Example 303, [6-[(5-cyclopropyl-1H-1,2,4-triazol-3-yl)methyl]-2-azaspiro[3.3]heptan-2-yl]-[6-[3-(trifluoromethyl)-1,2,4-triazol-1-yl]-2-azaspiro[3.3]heptan-2-yl]methanone]",9.41
13,"O=C(N1CC2(CC(Cc3n[nH]c(C4CC4)n3)C2)C1)N1CC2(CC(n3cnc(C4CC4)n3)C2)C1 [Example 304, [6-(3-cyclopropyl-1,2,4-triazol-1-yl)-2-azaspiro[3.3]heptan-2-yl]-[6-[(5-cyclopropyl-1H-1,2,4-triazol-3-yl)methyl]-2-azaspiro[3.3]heptan-2-yl]methanone]",1.82
14,"Cn1cnc(CN2CC3(C2)CN(C(=O)N2CC4(CC(n5cnc(C6CC6)n5)C4)C2)C3)c1 [Example 305, [6-(3-cyclopropyl-1,2,4-triazol-1-yl)-2-azaspiro[3.3]heptan-2-yl]-[6-[(1-methylimidazol-4-yl)methyl]-2,6-diazaspiro[3.3]heptan-2-yl]methanone]",2860
15,"CCc1nc(C)c(CN2CC3(C2)CN(C(=O)N2CC4(CC(n5cnc(C6CC6)n5)C4)C2)C3)[nH]1 [Example 306, [6-(3-cyclopropyl-1,2,4-triazol-1-yl)-2-azaspiro[3.3]heptan-2-yl]-[6-[(2-ethyl-4-methyl-1H-imidazol-5-yl)methyl]-2,6-diazaspiro[3.3]heptan-2-yl]methanone]",907
16,"Cc1nc(C)c(CN2CC3(C2)CN(C(=O)N2CC4(CC(n5cnc(C6CC6)n5)C4)C2)C3)o1 [Example 307, [6-(3-cyclopropyl-1,2,4-triazol-1-yl)-2-azaspiro[3.3]heptan-2-yl]-[6-[(2,4-dimethyloxazol-5-yl)methyl]-2,6-diazaspiro[3.3]heptan-2-yl]methanone]",102
17,"Cn1ccnc1CN1CC2(C1)CN(C(=O)N1CC3(CC(n4cnc(C5CC5)n4)C3)C1)C2 [Example 308, [6-(3-cyclopropyl-1,2,4-triazol-1-yl)-2-azaspiro[3.3]heptan-2-yl]-[6-[(1-methylimidazol-2-yl)methyl]-2,6-diazaspiro[3.3]heptan-2-yl]methanone]",110
18,"Cc1c(CN2CC3(C2)CN(C(=O)N2CC4(CC(n5cnc(C6CC6)n5)C4)C2)C3)cnn1C [Example 309, [6-(3-cyclopropyl-1,2,4-triazol-1-yl)-2-azaspiro[3.3]heptan-2-yl]-[6-[(1,5-dimethylpyrazol-4-yl)methyl]-2,6-diazaspiro[3.3]heptan-2-yl]methanone]",183
19,"O=C(N1CC2(CC(n3cnc(C(F)F)n3)C2)C1)N1CC2(CN(Cc3cn[nH]c3C(F)(F)F)C2)C1 [Example 310, [6-[3-(difluoromethyl)-1,2,4-triazol-1-yl]-2-azaspiro[3.3]heptan-2-yl]-[6-[[5-(trifluoromethyl)-1H-pyrazol-4-yl]methyl]-2,6-diazaspiro[3.3]heptan-2-yl]methanone]",344
20,"O=C(N1CC2(CC(n3cnc(C(F)F)n3)C2)C1)N1CC2(CN(Cc3cc(C(F)(F)F)n[nH]3)C2)C1 [Example 311, [6-[3-(difluoromethyl)-1,2,4-triazol-1-yl]-2-azaspiro[3.3]heptan-2-yl]-[6-[[3-(trifluoromethyl)-1H-pyrazol-5-yl]methyl]-2,6-diazaspiro[3.3]heptan-2-yl]methanone]",190
21,"O=C(N1CC2(CC(n3cnc(C(F)(F)F)n3)C2)C1)N1CC2(CN(Cc3ccn(CCC(F)(F)F)n3)C2)C1 [Example 312, [6-[3-(trifluoromethyl)-1,2,4-triazol-1-yl]-2-azaspiro[3.3]heptan-2-yl]-[6-[[1-(3,3,3-trifluoropropyl)pyrazol-3-yl]methyl]-2,6-diazaspiro[3.3]heptan-2-yl]methanone]",183
22,"CS(=O)(=O)c1cnn(CC2CC3(C2)CN(C(=O)N2CC4(CC(n5cnc(C6(O)CC6)n5)C4)C2)C3)c1 [Example 313, [6-[3-(1-hydroxycyclopropyl)-1,2,4-triazol-1-yl]-2-azaspiro[3.3]heptan-2-yl]-[6-[(4-mesylpyrazol-1-yl)methyl]-2-azaspiro[3.3]heptan-2-yl]methanone]",165
23,"Cn1c(CN2CC3(C2)CN(C(=O)N2CC4(CC(n5cnc(C(F)(F)F)n5)C4)C2)C3)nnc1C(F)(F)F [Example 314, [6-[[4-methyl-5-(trifluoromethyl)-1,2,4-triazol-3-yl]methyl]-2,6-diazaspiro[3.3]heptan-2-yl]-[6-[3-(trifluoromethyl)-1,2,4-triazol-1-yl]-2-azaspiro[3.3]heptan-2-yl]methanone]",123
24,"O=C(N1CC2(CCC(Cc3nnc(C(F)(F)F)[nH]3)CC2)C1)N1CC2(CC(n3cnc(C(F)F)n3)C2)C1 [Example 315, [6-[3-(difluoromethyl)-1,2,4-triazol-1-yl]-2-azaspiro[3.3]heptan-2-yl]-[7-[[5-(trifluoromethyl)-4H-1,2,4-triazol-3-yl]methyl]-2-azaspiro[3.5]nonan-2-yl]methanone]",113
25,"O=C(N1CC2(CC(Cc3nc(CC(F)(F)F)n[nH]3)C2)C1)N1CC2(CC(n3cnc(C(F)F)n3)C2)C1 [Example 316, [6-[3-(difluoromethyl)-1,2,4-triazol-1-yl]-2-azaspiro[3.3]heptan-2-yl]-[6-[[3-(2,2,2-trifluoroethyl)-1H-1,2,4-triazol-5-yl]methyl]-2-azaspiro[3.3]heptan-2-yl]methanone]",69.4
